In patent publication US4066762A, “Derivatives of 7-(2-substituted-2-hydroxyiminoacetamido)-3-(1-substituted tetrazol-5-yl thiomethyl-3-cephem-4-carboxylic acid” (SmithKline Corporation, priority 1976, dated 1978):
Values after ≈ are worked out from the molar mass of the structure shown. Where a name gives a salt, the structure may show the parent alone. Read-outs that look alike come from different tables or passages of the source.

Tests used:
E. coli SK 12140 = test: MIC in vitro, E. coli SK 12140 (G-); type: cell-based; settings: Escherichia coli, SK12140
Description: (§1) Table 1 contains minimum inhibitory concentrations in μg./ml. of a number of representative compounds compared with standard agents.

E. coli HH 33779 = test: MIC in vitro, E. coli HH 33779 (G-); type: cell-based; settings: Escherichia coli, HH33779
Description: as §1

Kleb. pneumoniae SK 1200 = test: MIC in vitro, Kleb. pneumoniae SK 1200 (G-); type: cell-based; settings: Klebsiella pneumoniae, SK1200
Description: as §1

S. Aureus SK 23390 = test: MIC in vitro, S. Aureus SK 23390 (G+); type: cell-based; settings: Staphylococcus aureus
Description: as §1

Pseudo Aeruginosa HH 63 = test: MIC in vitro, Pseudo Aeruginosa HH 63 (G-); type: cell-based
Description: as §1

[1] = system: Serratia Marcescens ATCC 13880; test: MIC in vitro, Serratia Marcescens ATCC 13880 (G-); type: cell-based
Description: as §1

S. Aureus HH 127 = test: MIC in vitro, S. Aureus HH 127 (G+); type: cell-based; settings: Staphylococcus aureus
Description: as §1

Strep. Faecalis HH 34358 = test: MIC in vitro, Strep. Faecalis HH 34358 (G+); type: cell-based; settings: for MIC: Enterococcus faecalis
Description: as §1

Proteus morgani 179 = test: MIC in vitro, Proteus morgani 179 (G-); type: cell-based
Description: as §1

S. villaluz SK 70390 = test: MIC in vitro, S. villaluz SK 70390 (G+); type: cell-based; settings: read-out: MIC in vitro
Description: as §1

Kleb. pneumo. 4200 = test: standard in vivo mouse protection test, Kleb. pneumo. 4200; settings: sc
Protocol: (§2) C is 7β-(syn-2-hydroxyimino-2-phenylacetamido)-3-(1-sulfomethyltetrazol-5-ylthiomethyl)-3-cephem-4-carboxylic acid disodium salt. […] 4200; 25 mg./kg. against E. coli 12140; Compound B 45 mg./kg. against Kleb. and 43, >50 against E. coli.

E. coli 12140 = test: standard in vivo mouse protection test, E. coli 12140; settings: s.c.
Protocol: as §2

Salmonella ATCC 12176 = test: MIC in vitro, Salmonella ATCC 12176 (G-); type: cell-based; settings: for MIC: Salmonella, ATCC12176, Salmonella ATCC 12176, G-
Description: as §1

[2] = system: Entero. aerogenes ATCC 13048; test: MIC in vitro, Entero. aerogenes ATCC 13048 (G-); type: cell-based; settings: Klebsiella aerogenes
Description: as §1

Entero. cloacae HH 31254 = test: MIC in vitro, Entero. cloacae HH 31254 (G-); type: cell-based; settings: Enterobacter cloacae, HH31254
Description: as §1

Kleb. pneumoniae SK 4200 = test: MIC in vitro, Kleb. pneumoniae SK 4200 (G-); type: cell-based; settings: Klebsiella pneumoniae, SK4200
Description: as §1

P. Mirabils PM 444 = test: MIC in vitro, P. Mirabils PM 444 (G-); type: cell-based
Description: as §1

[3] = ATCC13880, Serratia Marcescens ATCC 13880, G-, read-out: MIC in vitro
[4] = Escherichia coli, 12140, sc, read-out: ED50
[5] = P. Mirabils PM 444, G-, read-out: MIC in vitro
[6] = ATCC13048, Entero. aerogenes ATCC 13048, G-, read-out: MIC in vitro

| SMILES | MIC (E. coli SK 12140) [µg/mL] | MIC (E. coli HH 33779) [µg/mL] | MIC (Kleb. pneumoniae SK 1200) [µg/mL] | MIC (S. Aureus SK 23390) [µg/mL] | MIC (Pseudo Aeruginosa HH 63) [µg/mL] | MIC [1, 3] [µg/mL] | MIC (S. Aureus HH 127) [µg/mL] | MIC (Strep. Faecalis HH 34358) [µg/mL] | MIC (Proteus morgani 179) [µg/mL] | ED50 (Kleb. pneumo. 4200) [mg/kg] | ED50 (E. coli 12140; [4]) [mg/kg] | MIC (Salmonella ATCC 12176) [µg/mL] | MIC (Entero. cloacae HH 31254) [µg/mL] | MIC (Kleb. pneumoniae SK 4200) [µg/mL] | MIC (S. villaluz SK 70390; S. villaluz SK 70390, G+) [µg/mL] | MIC (P. Mirabils PM 444; [5]) [µg/mL] | MIC [2, 6] [µg/mL] | also measured |
| --- | --- | --- | --- | --- | --- | --- | --- | --- | --- | --- | --- | --- | --- | --- | --- | --- | --- | --- |
| CO/N=C(\C(=O)N[C@@H]1C(=O)N2C(C(=O)O)=C(CSc3nnnn3CS(=O)(=O)O)CS[C@H]12)c1ccccc1 [Compound B, 7β-(syn-2-methoxyimino-2-phenylacetamido)-3-(1-sulfomethyltetrazol-5-ylthiomethyl)-3-cephem-4-carboxylic acid disodium salt] | 6.3 | 6.3 | 3.1 | 1.6 | 200 | 12.5 | 1.6 | 25 | 6.3 | 45 | 43 | 1.6 | 3.1 | 3.1 |  |  |  | MIC (S. villaluz SK 70390): > 200 µg/mL; ED50 (E. coli 12140; disodium salt): > 50 mg/kg; MIC ([2]; ATCC13048, read-out: MIC in vitro): 12.5 µg/mL |
| CO/N=C(\C(=O)N[C@@H]1C(=O)N2C(C(=O)O)=C(CSc3nnnn3CS(=O)(=O)O)CS[C@H]12)c1ccco1 [A, 7β-(syn-2-methoxyimino-2-α-furylacetamido)-3-(1-sulfomethyltetrazol-5-ylthiomethyl)-3-cephem-4-carboxylic acid disodium salt hydrate] | 0.8 | 1.6 | 0.4 | 3.1 | 100 | 3.1 | 3.1 | 100 | 1.6 |  |  | 0.4 | 0.8 | 0.8 | > 200 | 1.6 | 3.1 | MIC ([1]; Serratia marcescens, ATCC13880, read-out: MIC in vitro, Serratia Marcescens ATCC 13880, G-): 6.3 µg/mL; MIC in vitro (Strep. Faecalis HH 34358; disodium salt hydrate): 200 µg/mL; MIC (P. Mirabils PM 444; read-out: MIC in vitro, P. Mirabils PM 444, G-): 0.2 µg/mL; MIC in vitro (Salmonella ATCC 12176; Salmonella ATCC 12176, G-, disodium salt hydrate): 0.8 µg/mL |
| CO/N=C(\C(=O)N[C@@H]1C(=O)N2C(C(=O)O)=C(COC(N)=O)CS[C@H]12)c1ccco1 [Cefuroxime, reference compound] | 6.3 (≈ 14.8 µM) | 6.3 (≈ 14.8 µM) | 3.1 (≈ 7.3 µM) | 1.6 (≈ 3.77 µM) | > 200 | 12.5 (≈ 29.5 µM) | 0.8 (≈ 1.89 µM) | 12.5 (≈ 29.5 µM) | 50 (≈ 118 µM) |  |  | 3.1 (≈ 7.3 µM) | 3.1 (≈ 7.3 µM) | 6.3 (≈ 14.8 µM) | > 200 | 1.6 (≈ 3.77 µM) | 6.3 (≈ 14.8 µM) |  |
| O=C(O)C1=C(CSc2nnnn2CS(=O)(=O)O)CS[C@@H]2[C@H](NC(=O)/C(=N\O)c3ccccc3)C(=O)N12 [Compound C, 7β-(syn-2-hydroxyimino-2-phenylacetamido)-3-(1-sulfomethyltetrazol-5-ylthiomethyl)-3-cephem-4-carboxylic acid disodium salt] | 1.6 | 3.1 | 0.8 | 0.8 | > 200 | 12.5 | 0.8 | 6.3 | 25 | 4.4 | 25 | 0.8 | 1.6 | 1.6 | 100 |  | 6.3 |  |
| Cc1nnc(SCC2=C(C(=O)O)N3C(=O)[C@@H](NC(=O)Cn4cnnn4)[C@H]3SC2)s1 [Cefazolin, reference compound] | 0.8 (≈ 1.76 µM) | 1.6 (≈ 3.52 µM) | 0.4 (≈ 0.88 µM) | 0.2 (≈ 0.44 µM) | > 200 | > 200 | 0.4 (≈ 0.88 µM) | 6.3 (≈ 13.9 µM) | 200 (≈ 440 µM) |  |  | 0.8 (≈ 1.76 µM) | 0.8 (≈ 1.76 µM) | 1.6 (≈ 3.52 µM) |  | 3.1 (≈ 6.82 µM) | 1.6 (≈ 3.52 µM) |  |
| CO[C@@]1(NC(=O)Cc2cccs2)C(=O)N2C(C(=O)O)=C(COC(N)=O)CS[C@@H]21 [Cefoxitin, reference compound] | 6.3 (≈ 14.7 µM) | 12.5 (≈ 29.2 µM) | 3.1 (≈ 7.25 µM) | 3.1 (≈ 7.25 µM) | > 200 | 12.5 (≈ 29.2 µM) | 1.6 (≈ 3.74 µM) | 200 (≈ 468 µM) | 12.5 (≈ 29.2 µM) |  |  | 3.1 (≈ 7.25 µM) | 6.3 (≈ 14.7 µM) | 6.3 (≈ 14.7 µM) | 100 (≈ 234 µM) | 6.3 (≈ 14.7 µM) | 25 (≈ 58.5 µM) |  |
